According to PMC7539012, “Hyperphosphorylated tau aggregation and cytotoxicity modulators screen identified prescription drugs linked to Alzheimer's disease and cognitive functions” (Scientific Reports, 2020):
Where a name gives a salt, the structure may show the parent alone. Read-outs that look alike come from different tables or passages of the source.

Tests used:
1N4R p-tau = system: T1, 1N4R p-tau; assay: p-tau aggregation modulator screen of 1280-compound library (ThS fluorescence net change over 16 h); assay type: biochemical; set-up: key to PTAI>3SD: *: PTAI>3SD
T1 construct: made in house; host or cells: E. coli (PIMAX system)

SH-SY5Y cells = assay: cells
Procedure: (see below). […] PI is excluded by living cells, but diffuses into dead cells where it binds nucleic acid and emits fluorescence. FDA/PI differential staining thus provides a quantitative assessment of cellular viability. The blue curves in Fig. 4a,b depict the cellular viability after treatment with 0–0.8 µM of p-tau.
P-tau (without pre-aggregation) and compounds were added together to cells. Cell viability was quantified by FDA and PI differential staining 24 h later. […] Cellular viability was characterized as above and plotted against the compound concentration. Trend lines in panels (a)–(c) were obtained with the dose response curve fitting function of the software Origin (Origin Pro 8, OriginLab Corporation, Northampton, MA, USA). (d) Representative images of apoptotic cells after treatment of p-tau. SH-SY5Y cells were treated with 0.6 µM of p-tau for 12 h before harvesting for annexin V and PI staining. […] The percentage of apoptotic SH-SY5Y cells was quantified by annexin V and PI double staining of cells receiving 12 h of the indicated treatment under each column in the graph. Error bars are standard deviations; n = 3.
SH-SY5Y cells were treated with 0–0.6 µM of p-tau in conjunction with varying doses of nitrazepam, prazepam or devazepide. […] The red dotted lines indicate 50% viability. Curve fitting was done with the dose–response fitting function of the software Origin (version 8, OriginLab Inc.). The number in parentheses represents the concentration (in µM) of the indicated compound.
Cell viability assays were tested according to reference[60] with modifications. PTAIs were typically added to cells along with (Fig. 4) or after p-tau was added to cells (Fig. 5). For PTAEs, 10 × concentration of p-tau and the test compounds were assembled for pre-aggregation (without heparin or ThS) for 48 h before adding 10 µl to 100 µl of cells in 96-well plates. Twenty-four or 48 h after the addition of protein/compound, cells were trypsinized and transferred to microcentrifuge tubes, and pelleted at 1000 × g for 5 min at room temperature for FDA, PI, annexin V, and ThS staining. For PI/ThS double staining, cell pellets were resuspended in 20 mM Tris, pH7.4 buffer and incubated with 100 µM ThS for 5 min at room temperature. 5-µg/ml propidium iodide was then added to cell suspension for observation under a microscope.
Supplemental Figure 2. […] SH-SY5Y cells were treated with the indicated concentrations p-tau and compounds (in µM) for 20 hours before FDA/PI differential staining and microscopic quantification. […] 0.2 or 0.4 µM of p-tau and 30 µM of each compound were pre-incubated in aggregation reactions for 24 hours before the 20-hr cell treatment and cytotoxicity quantification. FDA and PI dual staining was performed to measure cellular viability. SH-SY5Y cells Compounds in panel (a) were added to cells along with p-tau without pre-incubation.

p-tau = molecular target: T2, p-tau (Homo sapiens, UniProt P10636); assay: p-tau aggregation assay, dose response (ThS fluorescence, inducer-free); assay type: biochemical; settings: for effect on p-tau aggregation: 50 or 200 µM compound, heparin-free; for effect on p-tau aggregation (16-h net change of ThS fluorescence): 6.25-150 µM benzodiazepine
T2 construct: made in house; host or cells: E. coli (PIMAX system)
T2 sequence (P10636 1-412 isoform P10636-7): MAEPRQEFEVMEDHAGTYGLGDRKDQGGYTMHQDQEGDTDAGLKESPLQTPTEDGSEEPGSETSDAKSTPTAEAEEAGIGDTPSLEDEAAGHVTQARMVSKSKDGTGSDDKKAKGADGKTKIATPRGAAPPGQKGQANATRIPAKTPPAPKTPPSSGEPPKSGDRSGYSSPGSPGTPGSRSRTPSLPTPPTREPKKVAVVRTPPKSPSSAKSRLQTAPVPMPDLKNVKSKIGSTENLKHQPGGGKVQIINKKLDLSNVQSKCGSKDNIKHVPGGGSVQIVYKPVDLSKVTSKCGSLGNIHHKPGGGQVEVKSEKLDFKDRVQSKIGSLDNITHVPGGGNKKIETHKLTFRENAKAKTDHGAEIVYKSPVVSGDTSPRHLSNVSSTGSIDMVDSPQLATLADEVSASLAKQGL
Procedure: Aggregation of 6-µM p-tau under the influence of 30 µM of each of the library compounds or a DMSO vehicle control was monitored in 384-well plates every 10 min for ThS fluorescence changes over 16 h. To assess the quality of the high-throughput p-tau aggregation reactions, we used the T0 and T16hr ThS fluorescence units of no-compound control reactions to calculate the Z′-factor and coefficient of variation (CV), two commonly used criteria for robustness of high-throughput screens (HTS)[62]. A Z′-factor greater than 0.5 and CV smaller than 10% indicate robustness. […] To identify compounds with significant p-tau aggregation modulation, the net change of ThS fluorescence was calculated from all reactions (see Supplemental Table 1 for complete listing).
Aggregation of 6 µM of p-tau was done in the presence of the indicated concentrations of either compound. […] P-tau aggregation reactions with the C291S C322S (C/S) mutant p-tau were done in the presence of the indicated amounts of either compound. Shown are net changes of ThS over 16 h.
Given the tremendous socioeconomical burdens of AD, measures that prevent or delay the onset of the devastating neurodegeneration of AD will be highly impactful. If hyperphosphorylated tau-inflicted neuronal damages are an underpinning for AD and other tauopathies, enhancers of p-tau aggregation (PTAEs) may be risk factors for neurodegeneration. […] Prednicarbate is a synthetic corticosteroid for dermatological use, and carmofur (1-hexylcarbamoyl-5-fluorouracil) is an anti-neoplastic pyrimidine analogue. […] BZDs are among the most widely prescribed medication, in particular to the elderly, for depression and insomnia[70],[71]. We hypothesized that certain BZDs acted as a PTAE to potentiate p-tau aggregation and cytotoxicity. […] We therefore randomly picked nine prescription BZDs for p-tau aggregation assessment (Fig. 6; see Supplemental Fig. 5 for chemical structures). To 6-µM p-tau aggregation reactions, increasing doses of each of these BZDs were added.
Prednicarbate, a synthetic steroid, served as a PTAE control (yellow bars).
The aggregation assays over the course of this project have been done with multi-plate readers from different sources.
A common mix of 6 µM p-tau, 20 mM Tris pH 7.4, 1 mM DTT, and 20 µM ThS was assembled and dispensed to 384-well low-volume plates (10 µl per well) using BioTek EL406 Washer, followed by the addition of 150 nl of the Prestwick Library compounds (final concentration of 30 µM per well) or DMSO in a Beckman Coulter Biomek FX^P workstation. Each plate was covered with an Optical Adhesive Film and incubated at 37 °C for about 10 min. ThS fluorescence was measured every 10 min at 440/490 nm for 16 h by Biotek Synergy Neo Plate Reader. […] The real-time kinetics of ThS signals were collected using Gen5 software.

K18 P301L = system: K18 P301L; set-up: method as in earlier work; settings: 15 µM K18 P301L, 40 µM heparin; ref Probe Report ML103, National Center for Biotechnology Information, 2010; read-out: AC50 for tau aggregation inhibition; cited from earlier work
[1] = flag: p-tau aggregation inhibitor, ThS net change more than 3 SD from mean
[2] = library screen, ThS fluorescence net change over 16 h with p-tau
[3] = SH-SY5Y, p-tau pre-incubated with compound

For CC(C)/N=c1\cc2n(-c3ccc(Cl)cc3)c3ccccc3nc-2cc1Nc1ccc(Cl)cc1 [Clofazimine, clofazimine, reference compound], the “PTAI>3SD” value (1N4R p-tau; [1]) was “*”, the ThS net change (1N4R p-tau; [2]) was -196 and the p-tau cytotox (SH-SY5Y cells) was “No change”. The EC50 (p-tau; 6 µM p-tau, ThS fluorescence) was 68 µM.

In the case of Oc1c(Cl)cc(Cl)c(Cl)c1Cc1c(O)c(Cl)cc(Cl)c1Cl [Hexachlorophene, hexachlorophene], the “PTAI>3SD” value (1N4R p-tau) is reported as “*”, the ThS net change (1N4R p-tau) is reported as 74 and the EC50 (p-tau) is reported as 17.8 µM.

In the case of NNc1nncc2ccccc12 [Hydralazine, hydralazine hydrochloride], the p-tau cytotox (SH-SY5Y cells) is reported as “No change” and the EC50 (p-tau; 6 µM p-tau, ThS fluorescence) is reported as 21.8 µM.

With CCC(C)n1ncn(-c2ccc(N3CCN(c4ccc(OCC5COC(Cn6cncn6)(c6ccc(Cl)cc6Cl)O5)cc4)CC3)cc2)c1=O (stereo not shown) [Itraconazole, itraconazole, reference compound] the “PTAI>3SD” value (1N4R p-tau; [1]) was “*”, the ThS net change (1N4R p-tau; [2]) was -31 and the p-tau cytotox (SH-SY5Y cells) was “No change”. The EC50 (p-tau; 6 µM p-tau, ThS fluorescence) was 10.6 µM.

With COC(=O)C1=C(C)NC(C)=C(C(=O)OC)C1c1ccccc1[N+](=O)[O-] [Nifedipine, nifedipine, reference compound] the “PTAI>3SD” value (1N4R p-tau; [1]) was “*”, the ThS net change (1N4R p-tau; [2]) was -97 and the EC50 (p-tau; 6 µM p-tau, ThS fluorescence) was 24.3 µM.

For COC(=O)C1=C(C)NC(C)=C(C(=O)OCC(C)C)C1c1ccccc1[N+](=O)[O-] (stereo not shown) [Nisoldipine, nisoldipine, reference compound], the “PTAI>3SD” value (1N4R p-tau; [1]) was “*”, the ThS net change (1N4R p-tau; [2]) was -29 and the p-tau cytotox (SH-SY5Y cells) was “No change”.

In the case of CCOC(=O)c1nn(-c2ccccc2)c(=O)c2c(N)scc12 [compound 1], the “effect on p-tau aggregation” value (p-tau) is given as “no effect on p-tau aggregation” and the AC50 (K18 P301L) is given as 3.3 ± 0.2 µM.

In the case of Nc1scc2c(C(=O)O)nn(-c3ccccc3)c(=O)c12 [compound 2], the “p-tau aggregation reduced to” value (p-tau; 400 µM compound) is reported as 57%, the “p-tau aggregation reduced to” value (p-tau; 1 mM compound) is reported as 46% and the “effect on p-tau aggregation” value (p-tau) is reported as “moderate inhibition”. For the same molecule, the AC50 (K18 P301L) was 6.8 ± 0.4 µM.

With CN1C(=O)[C@@H](NC(=O)c2cc3ccccc3[nH]2)N=C(c2ccccc2)c2ccccc21 [devazepide] the “effect on p-tau cytotoxicity (cell death curve, LD50)” value (“effect on p-tau cytotoxicity” for short) (SH-SY5Y cells) was “decreasing LD50” and the “effect on p-tau aggregation (16-h net change of ThS fluorescence)” value (p-tau; 6 µM p-tau) was “enhanced p-tau aggregation in a dose-dependent manner”.

For CN1C(=O)CN=C(c2ccccc2)c2cc(Cl)ccc21 [diazepam], the “effect on p-tau aggregation (16-h net change of ThS fluorescence)” value (p-tau; 6 µM p-tau) was “enhanced p-tau aggregation in a dose-dependent manner”.

For CCN(CC)CCN1C(=O)CN=C(c2ccccc2F)c2cc(Cl)ccc21 [flurazepam], the “effect on p-tau aggregation (16-h net change of ThS fluorescence)” value (p-tau; 6 µM p-tau) was “enhanced p-tau aggregation in a dose-dependent manner”.

For CN1C(=O)CN=C(c2ccccc2)c2cc([N+](=O)[O-])ccc21 [nimetazepam], the “effect on p-tau aggregation (16-h net change of ThS fluorescence)” value (p-tau; 6 µM p-tau) was “did not”.

With O=C1CN=C(c2ccccc2)c2cc([N+](=O)[O-])ccc2N1 [nitrazepam] the “effect on p-tau cytotoxicity” value (SH-SY5Y cells; [3]) was “did not alter the cytotoxicity of p-tau at all” and the “effect on p-tau aggregation (16-h net change of ThS fluorescence)” value (p-tau; 6 µM p-tau) was “did not”.

With O=C1CN=C(c2ccccc2)c2cc(Cl)ccc2N1 [nordiazepam] the “effect on p-tau aggregation (16-h net change of ThS fluorescence)” value (p-tau; 6 µM p-tau) was “did not”.

With O=C1Nc2ccc(Cl)cc2C(c2ccccc2)=NC1O (stereo not shown) [oxazepam] the “effect on p-tau aggregation (16-h net change of ThS fluorescence)” value (p-tau; 6 µM p-tau) was “did not”.

For O=C1CN=C(c2ccccc2)c2cc(Cl)ccc2N1CC1CC1 [prazepam], the “effect on p-tau cytotoxicity” value (SH-SY5Y cells; [3]) was “decreasing LD50” and the “effect on p-tau aggregation (16-h net change of ThS fluorescence)” value (p-tau; 6 µM p-tau) was “enhanced p-tau aggregation in a dose-dependent manner”.

In the case of CN1C(=O)C(O)N=C(c2ccccc2)c2cc(Cl)ccc21 (stereo not shown) [temazepam], the “effect on p-tau aggregation (16-h net change of ThS fluorescence)” value (p-tau; 6 µM p-tau) is reported as “enhanced p-tau aggregation in a dose-dependent manner”.
